Measured values published in ChEMBL document CHEMBL5257075, “Design, synthesis and biological evaluation of quinazoline SOS1 inhibitors” (Bioorg Med Chem Lett, 2023).

Key:
K562 = experiment: Antiproliferative activity against human K562 cells assessed as inhibition of cell proliferation; type: functional, cell-based
[1] = molecular target: T1, Son of sevenless homolog 1 (Homo sapiens, UniProt Q07889); experiment: Inhibition of SOS1 (unknown origin)
T1 sequence (Q07889 whole entry): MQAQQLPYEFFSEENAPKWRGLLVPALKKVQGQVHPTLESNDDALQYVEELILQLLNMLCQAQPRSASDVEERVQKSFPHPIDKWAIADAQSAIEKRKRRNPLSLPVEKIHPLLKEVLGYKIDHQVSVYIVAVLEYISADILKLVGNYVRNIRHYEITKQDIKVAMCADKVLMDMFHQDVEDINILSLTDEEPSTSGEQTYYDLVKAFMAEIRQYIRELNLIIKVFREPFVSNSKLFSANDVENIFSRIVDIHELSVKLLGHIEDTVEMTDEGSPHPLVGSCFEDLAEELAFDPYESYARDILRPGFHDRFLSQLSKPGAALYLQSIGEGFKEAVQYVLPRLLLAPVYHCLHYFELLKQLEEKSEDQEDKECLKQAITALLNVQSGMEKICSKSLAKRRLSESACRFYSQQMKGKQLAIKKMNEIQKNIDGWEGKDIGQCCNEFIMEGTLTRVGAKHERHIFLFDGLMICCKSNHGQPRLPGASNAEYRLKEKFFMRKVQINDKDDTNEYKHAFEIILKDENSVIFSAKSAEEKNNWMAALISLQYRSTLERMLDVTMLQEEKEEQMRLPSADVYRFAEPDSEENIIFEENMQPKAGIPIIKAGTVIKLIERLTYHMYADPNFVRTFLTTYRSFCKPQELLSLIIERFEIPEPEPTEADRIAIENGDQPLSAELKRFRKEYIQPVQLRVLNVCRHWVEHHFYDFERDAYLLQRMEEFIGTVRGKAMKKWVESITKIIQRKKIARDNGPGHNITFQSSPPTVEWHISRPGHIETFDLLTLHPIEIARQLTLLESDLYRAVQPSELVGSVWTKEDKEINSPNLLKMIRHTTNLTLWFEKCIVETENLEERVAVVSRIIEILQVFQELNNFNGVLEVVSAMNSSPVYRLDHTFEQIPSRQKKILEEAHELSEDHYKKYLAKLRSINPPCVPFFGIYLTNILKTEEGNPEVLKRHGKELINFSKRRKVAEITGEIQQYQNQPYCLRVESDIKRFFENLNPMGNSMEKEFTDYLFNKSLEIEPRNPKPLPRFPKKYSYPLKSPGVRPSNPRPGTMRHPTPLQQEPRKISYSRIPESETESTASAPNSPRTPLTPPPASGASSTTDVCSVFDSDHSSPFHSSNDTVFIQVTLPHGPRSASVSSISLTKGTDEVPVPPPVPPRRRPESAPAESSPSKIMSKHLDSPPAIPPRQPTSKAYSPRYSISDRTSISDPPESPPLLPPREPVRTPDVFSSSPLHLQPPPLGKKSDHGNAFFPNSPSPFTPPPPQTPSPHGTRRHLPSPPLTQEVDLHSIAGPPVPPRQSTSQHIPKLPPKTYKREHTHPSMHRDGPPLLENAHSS

[2] = molecular target: T2, Son of sevenless homolog 1 (Homo sapiens) (UniProt Q07889); experiment: Inhibition of SOS1 (unknown origin) at 500 nM
T2 sequence (whole entry): T1 sequence (Q07889 whole entry)

NCI-H838 = experiment: Antiproliferative activity against human NCI-H838 cells assessed as inhibition of cell proliferation; type: functional, cell-based
[3] = molecular target: Epidermal growth factor receptor (Homo sapiens) (UniProt P00533); experiment: Inhibition of wild type EGFR (unknown origin) at 5000 nM
Chain of Epidermal growth factor receptor (Homo sapiens) (P00533 whole entry): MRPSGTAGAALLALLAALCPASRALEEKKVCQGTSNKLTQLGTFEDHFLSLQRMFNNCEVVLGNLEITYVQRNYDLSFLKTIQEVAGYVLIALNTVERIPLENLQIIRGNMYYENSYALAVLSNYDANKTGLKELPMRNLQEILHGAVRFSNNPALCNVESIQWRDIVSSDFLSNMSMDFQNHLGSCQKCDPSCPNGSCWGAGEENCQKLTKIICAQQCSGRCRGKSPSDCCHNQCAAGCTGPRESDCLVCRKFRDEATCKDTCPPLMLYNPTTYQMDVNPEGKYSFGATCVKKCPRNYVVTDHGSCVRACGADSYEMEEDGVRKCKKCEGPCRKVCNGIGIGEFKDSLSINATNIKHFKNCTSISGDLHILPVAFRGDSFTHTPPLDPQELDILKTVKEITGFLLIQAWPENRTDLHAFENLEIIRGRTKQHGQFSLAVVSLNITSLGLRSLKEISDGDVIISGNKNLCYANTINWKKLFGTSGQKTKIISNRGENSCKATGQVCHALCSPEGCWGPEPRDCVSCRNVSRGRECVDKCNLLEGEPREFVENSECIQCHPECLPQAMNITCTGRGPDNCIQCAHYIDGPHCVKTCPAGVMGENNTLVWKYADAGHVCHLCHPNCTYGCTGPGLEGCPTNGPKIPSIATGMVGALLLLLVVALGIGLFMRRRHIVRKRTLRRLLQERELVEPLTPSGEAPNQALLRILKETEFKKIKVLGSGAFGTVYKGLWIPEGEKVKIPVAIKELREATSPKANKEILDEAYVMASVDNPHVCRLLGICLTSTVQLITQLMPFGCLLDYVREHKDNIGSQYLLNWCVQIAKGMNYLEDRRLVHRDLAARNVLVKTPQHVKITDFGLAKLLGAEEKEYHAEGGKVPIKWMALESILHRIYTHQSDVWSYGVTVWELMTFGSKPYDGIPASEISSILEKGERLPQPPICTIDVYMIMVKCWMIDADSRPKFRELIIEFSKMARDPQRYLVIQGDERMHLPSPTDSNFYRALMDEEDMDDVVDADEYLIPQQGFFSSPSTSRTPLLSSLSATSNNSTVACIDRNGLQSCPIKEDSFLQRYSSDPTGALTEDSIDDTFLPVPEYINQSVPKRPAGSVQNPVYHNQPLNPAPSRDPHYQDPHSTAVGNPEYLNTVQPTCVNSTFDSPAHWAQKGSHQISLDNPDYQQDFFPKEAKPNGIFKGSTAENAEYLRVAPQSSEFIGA

What does the source list for `CNCc1ccccc1-c1csc(C(C)Nc2nc(C)nc3cc4c(cc23)OCCO4)c1` (racemic)?
IC50 (K562): 3490 nM; IC50 [1]: 27 nM; inhibition [2]: 81.4%

`COc1cc2ncnc(NC(C)c3cc(-c4ccccc4CNCCO)cs3)c2cc1OC` (racemic) was tested. Which IC50 (K562) did it give?
Its IC50 is 4050 nM.

And the IC50 [1]?
Its IC50 is 18 nM.

What about the inhibition [2] of the same molecule?
Its inhibition is 97.5%.

For `Cc1nc(NC(C)c2cc(-c3ccccc3CNCCO)cs2)c2cc3c(cc2n1)OCCO3` (racemic), which IC50 (K562) is on record?
Its IC50 is 2480 nM.

What about the IC50 [1] of the same molecule?
The IC50 was 45 nM.

And the inhibition [2]?
The inhibition was 85.1%.

Which results are given for `CNCc1ccccc1-c1csc(C(C)Nc2ncnc3cc(OC)c(OC)cc23)c1` (racemic)?
IC50 (K562): 2210 nM; IC50 [1]: 20 nM; IC50 (NCI-H838): > 25000 nM; inhibition [2]: 99%; inhibition [3]: 38.1%

What does the source list for `CNCc1ccccc1-c1csc(C(C)Nc2ncnc3cc4c(cc23)OCCO4)c1` (racemic)?
IC50 (K562): 2870 nM; IC50 [1]: 97 nM; IC50 (NCI-H838): > 25000 nM; inhibition [2]: 78.5%; inhibition [3]: 22.2%

What does the source list for `COc1cc2ncnc(NC(C)c3ccc(-c4ccccc4CNCCO)s3)c2cc1OC` (racemic)?
IC50 (K562): 890 nM; IC50 [1]: 8.5 nM; IC50 (NCI-H838): > 25000 nM; inhibition [2]: 99.1%; inhibition [3]: 20.7%

Which inhibition [2] does the source give for `CC(Nc1ncnc2cc3c(cc12)OCCO3)c1cc(-c2ccccc2CNCCO)cs1` (racemic) here?
The inhibition was 80.2%.

`CC(Nc1ncnc2cc3c(cc12)OCCO3)c1ccc(-c2ccccc2CNCCO)s1` (racemic) was tested. Which inhibition [2] did it give?
Its inhibition is 79.4%.

`CNCc1ccccc1-c1ccc(C(C)Nc2nc(C)nc3cc4c(cc23)OCCO4)s1` (racemic) was tested. Which inhibition [2] did it give?
The inhibition was 77.3%.

`CNCc1ccccc1-c1ccc(C(C)Nc2ncnc3cc(OC)c(OC)cc23)s1` (racemic) was tested. Which inhibition [2] did it give?
The inhibition was 98.7%.

Which inhibition [2] does the source give for `CNCc1ccccc1-c1ccc(C(C)Nc2ncnc3cc4c(cc23)OCCO4)s1` (racemic) here?
Its inhibition is 75.9%.

How did the inhibition [2] turn out when `COc1cc2ncnc(NC(C)c3cc(-c4ccccc4C(N)=O)cs3)c2cc1OC` (racemic) was run?
Its inhibition is 33.7%.

With `COc1cc2ncnc(NC(C)c3cc(-c4ccccc4N)cs3)c2cc1OC` (racemic) as the molecule, how does the inhibition [2] read?
The inhibition was 61%.

For `COc1cc2ncnc(NC(C)c3cc(-c4ccccc4O)cs3)c2cc1OC` (racemic), which inhibition [2] is on record?
Its inhibition is 65.7%.

Which inhibition [2] does the source give for `COc1cc2ncnc(NC(C)c3ccc(-c4ccccc4C(N)=O)s3)c2cc1OC` (racemic) here?
Its inhibition is 38.7%.

`COc1cc2ncnc(NC(C)c3ccc(-c4ccccc4N)s3)c2cc1OC` (racemic) was tested. Which inhibition [2] did it give?
Its inhibition is 75.2%.

Which inhibition [2] does the source give for `COc1cc2ncnc(NC(C)c3ccc(-c4ccccc4O)s3)c2cc1OC` (racemic) here?
Its inhibition is 43.9%.

How did the inhibition [2] turn out when `Cc1nc(NC(C)c2ccc(-c3ccccc3CNCCO)s2)c2cc3c(cc2n1)OCCO3` (racemic) was run?
Its inhibition is 89.1%.

How did the IC50 (K562) turn out when `CNCc1ccccc1-c1csc([C@@H](C)Nc2nc(C)nc3cc(OC)c(OC)cc23)c1` [BAY-293] was run?
The IC50 was 230 nM.
